Results from article doi:10.1101/2025.06.30.662286v4 (biorxiv, 2026).
Where two headings read alike, the source gives them in different places. Blank lines part the entries; values can stand above or below the compound they belong to.

Tests used:
sc-apCC-4-LMF-1 = conditions: PBS pH 7.4, 10% v/v DMSO, 1 μM lumiflavin, 0-480 μM protein
sc-apCC-4-SN38-1 [1] = assay: fluorescence saturation binding; design: species or system synthetic construct
[2] = target: sc-apCC-6-NR (S, specific binder); assay: fluorescence saturation binding; design: species or system synthetic construct; conditions: PBS pH 7.4, 10% v/v MeCN, 0.5 μM ligand, 0-60 μM protein
[3] = target: sc-apCC-4-DPH (highest-affinity DPH binder of Fig. 2; sc-apCC-4-DPH-1 or sc-apCC-4-DPH-2); assay: fluorescence intensity saturation binding; design: species or system synthetic construct; conditions: PBS pH 7.4, 10% v/v MeCN, 0.5 μM DPH, 0-60 μM protein
[4] = target: sc-apCC-6-DPH-NR (P, promiscuous binder); assay: fluorescence saturation binding; design: species or system synthetic construct; conditions: PBS pH 7.4, 10% v/v MeCN, 0.5 μM ligand, 0-60 μM protein
sc-apCC-4-SN38-1 [5] = assay: fluorescence saturation binding; design: species or system synthetic construct; conditions: ABS pH 4, 10% v/v DMSO, 1 μM SN38, 0-480 μM protein
sc-apCC-4-NR-1 = assay: fluorescence intensity saturation binding; design: species or system synthetic construct; conditions: PBS pH 7.4, 10% v/v MeCN, 0.5 μM Nile red, 0-60 μM protein

Kd (sc-apCC-4-SN38-1 [1]; read-out: KD,Nile blue): ~0.4 µM
SMILES: CCN(CC)c1ccc2nc3c4ccccc4c(=N)cc-3oc2c1 [Nile blue]

Kd [2]: > 20 µM
Kd [3]: 1.2 ± 0.1 µM
Kd [4]: 1.9 ± 0.2 µM
SMILES: C(=CC=Cc1ccccc1)C=Cc1ccccc1 [DPH, 1,6-diphenyl-1,3,5-hexatriene]

Kd [2]: 0.11 ± 0.04 µM
Kd [4]: 2.2 ± 0.2 µM
Kd (sc-apCC-4-SN38-1 [1]; read-out: KD,Nile Red): ~0.2 µM
Kd (sc-apCC-4-NR-1): 2.4 ± 0.1 µM
SMILES: CCN(CC)c1ccc2nc3c4ccccc4c(=O)cc-3oc2c1 [Nile red]

Continued, compound first:

SMILES: Cc1cc2nc3c(=O)[nH]c(=O)nc-3n(C)c2cc1C [lumiflavin]
Kd (sc-apCC-4-LMF-1): > 50 µM

SMILES: CCc1c2c(nc3ccc(O)cc13)-c1cc3c(c(=O)n1C2)COC(=O)[C@]3(O)CC [SN38]
Kd (sc-apCC-4-SN38-1 [5]): 7.8 ± 0.6 µM
